In ChEMBL document CHEMBL1201862, “PubChem BioAssay data set” (2004):
Calls of active or inactive are those of the source.

Columns and labels:
[1] = molecular target: Peroxisome proliferator-activated receptor gamma/Nuclear receptor corepressor 2 (Homo sapiens, UniProt P37231+Q9Y618); assay: Counterscreen for NR2E3 inverse agonists: TR-FRET-based biochemical high throughput dose response assay to identify inverse agonists of the interaction between peroxisome proliferator-activated receptor gamma (PPARg) and nuclear receptor co-repressor 2 (NCOR2).; assay type: functional
Sequence of Peroxisome proliferator-activated receptor gamma/Nuclear receptor corepressor 2 (P37231 whole entry): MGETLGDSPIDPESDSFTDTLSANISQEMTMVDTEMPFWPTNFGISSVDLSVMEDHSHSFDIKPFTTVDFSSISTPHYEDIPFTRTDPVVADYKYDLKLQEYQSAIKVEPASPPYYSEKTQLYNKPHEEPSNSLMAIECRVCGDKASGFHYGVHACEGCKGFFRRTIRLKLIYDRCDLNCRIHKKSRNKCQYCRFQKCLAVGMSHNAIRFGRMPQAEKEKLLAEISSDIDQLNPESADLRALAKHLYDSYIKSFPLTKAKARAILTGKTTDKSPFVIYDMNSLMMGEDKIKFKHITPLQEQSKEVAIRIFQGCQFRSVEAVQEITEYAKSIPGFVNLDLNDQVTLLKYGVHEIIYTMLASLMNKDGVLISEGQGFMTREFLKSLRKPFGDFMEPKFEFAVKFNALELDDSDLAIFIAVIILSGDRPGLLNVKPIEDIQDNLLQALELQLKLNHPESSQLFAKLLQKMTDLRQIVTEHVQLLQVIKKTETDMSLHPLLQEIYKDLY
Sequence of Peroxisome proliferator-activated receptor gamma/Nuclear receptor corepressor 2 (Q9Y618 whole entry): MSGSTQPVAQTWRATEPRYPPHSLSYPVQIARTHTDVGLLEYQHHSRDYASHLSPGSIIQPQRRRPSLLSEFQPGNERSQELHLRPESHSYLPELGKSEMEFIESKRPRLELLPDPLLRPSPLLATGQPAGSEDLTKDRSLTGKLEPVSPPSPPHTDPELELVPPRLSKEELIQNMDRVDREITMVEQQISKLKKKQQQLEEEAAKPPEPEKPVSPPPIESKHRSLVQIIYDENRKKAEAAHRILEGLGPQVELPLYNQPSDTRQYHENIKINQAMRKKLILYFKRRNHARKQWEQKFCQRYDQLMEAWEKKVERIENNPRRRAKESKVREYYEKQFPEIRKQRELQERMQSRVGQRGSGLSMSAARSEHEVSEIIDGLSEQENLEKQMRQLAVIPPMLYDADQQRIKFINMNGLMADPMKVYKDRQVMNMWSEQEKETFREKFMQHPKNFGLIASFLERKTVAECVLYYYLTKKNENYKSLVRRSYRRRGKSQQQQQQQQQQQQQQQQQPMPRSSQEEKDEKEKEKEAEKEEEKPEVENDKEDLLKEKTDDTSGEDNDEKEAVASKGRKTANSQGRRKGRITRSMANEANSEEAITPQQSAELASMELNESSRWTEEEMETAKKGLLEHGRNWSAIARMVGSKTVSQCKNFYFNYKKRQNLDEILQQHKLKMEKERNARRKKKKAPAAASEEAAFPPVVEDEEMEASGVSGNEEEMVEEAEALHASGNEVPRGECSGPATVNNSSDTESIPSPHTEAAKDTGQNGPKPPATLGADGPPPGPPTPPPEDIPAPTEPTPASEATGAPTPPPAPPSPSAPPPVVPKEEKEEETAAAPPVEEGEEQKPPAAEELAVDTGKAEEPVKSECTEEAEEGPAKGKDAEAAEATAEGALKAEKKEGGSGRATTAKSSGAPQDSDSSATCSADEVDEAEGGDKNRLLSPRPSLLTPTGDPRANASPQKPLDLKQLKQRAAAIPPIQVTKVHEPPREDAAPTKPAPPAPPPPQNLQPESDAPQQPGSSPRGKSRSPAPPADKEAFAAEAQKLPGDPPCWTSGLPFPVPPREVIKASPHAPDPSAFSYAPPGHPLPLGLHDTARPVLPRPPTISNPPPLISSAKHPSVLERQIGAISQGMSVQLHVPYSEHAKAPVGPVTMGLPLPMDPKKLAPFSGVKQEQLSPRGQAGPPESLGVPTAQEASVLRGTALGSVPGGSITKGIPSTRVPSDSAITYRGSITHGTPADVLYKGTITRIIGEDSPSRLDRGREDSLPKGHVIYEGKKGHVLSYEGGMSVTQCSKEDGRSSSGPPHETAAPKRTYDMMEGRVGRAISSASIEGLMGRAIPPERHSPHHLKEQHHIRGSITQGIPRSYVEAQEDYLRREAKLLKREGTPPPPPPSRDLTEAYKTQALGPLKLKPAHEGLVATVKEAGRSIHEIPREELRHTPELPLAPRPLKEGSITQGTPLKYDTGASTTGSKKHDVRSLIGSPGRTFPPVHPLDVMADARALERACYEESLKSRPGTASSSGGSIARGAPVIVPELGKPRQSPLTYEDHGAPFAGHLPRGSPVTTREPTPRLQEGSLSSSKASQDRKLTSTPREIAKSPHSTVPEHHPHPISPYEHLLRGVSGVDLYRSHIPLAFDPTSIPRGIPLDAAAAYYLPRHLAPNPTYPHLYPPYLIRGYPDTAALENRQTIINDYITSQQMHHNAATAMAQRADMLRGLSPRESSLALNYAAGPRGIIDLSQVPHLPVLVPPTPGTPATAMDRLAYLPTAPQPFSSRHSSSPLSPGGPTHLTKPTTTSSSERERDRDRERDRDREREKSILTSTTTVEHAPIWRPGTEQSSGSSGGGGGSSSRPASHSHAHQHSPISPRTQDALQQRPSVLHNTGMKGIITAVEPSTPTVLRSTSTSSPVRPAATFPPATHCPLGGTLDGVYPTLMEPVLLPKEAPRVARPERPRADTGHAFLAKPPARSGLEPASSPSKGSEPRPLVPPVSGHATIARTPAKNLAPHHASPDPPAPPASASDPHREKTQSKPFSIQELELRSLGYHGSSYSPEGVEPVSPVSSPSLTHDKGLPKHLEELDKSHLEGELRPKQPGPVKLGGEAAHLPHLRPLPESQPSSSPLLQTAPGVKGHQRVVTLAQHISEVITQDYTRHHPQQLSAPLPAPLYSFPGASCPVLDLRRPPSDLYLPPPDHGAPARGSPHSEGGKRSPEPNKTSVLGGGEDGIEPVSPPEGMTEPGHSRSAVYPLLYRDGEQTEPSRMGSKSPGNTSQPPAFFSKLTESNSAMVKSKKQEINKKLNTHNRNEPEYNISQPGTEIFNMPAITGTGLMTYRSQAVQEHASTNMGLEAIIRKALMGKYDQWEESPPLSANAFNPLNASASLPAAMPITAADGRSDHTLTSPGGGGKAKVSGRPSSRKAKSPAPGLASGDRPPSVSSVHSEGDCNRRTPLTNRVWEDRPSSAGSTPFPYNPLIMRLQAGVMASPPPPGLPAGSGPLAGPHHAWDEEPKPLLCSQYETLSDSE

[2] = molecular target: Photoreceptor-specific nuclear receptor (Homo sapiens, UniProt Q9Y5X4); assay: NR2E3 inverse agonists, dose response, biochemical, TR-FRET (AID 463256); assay type: functional
Sequence of Photoreceptor-specific nuclear receptor (Q9Y5X4 whole entry): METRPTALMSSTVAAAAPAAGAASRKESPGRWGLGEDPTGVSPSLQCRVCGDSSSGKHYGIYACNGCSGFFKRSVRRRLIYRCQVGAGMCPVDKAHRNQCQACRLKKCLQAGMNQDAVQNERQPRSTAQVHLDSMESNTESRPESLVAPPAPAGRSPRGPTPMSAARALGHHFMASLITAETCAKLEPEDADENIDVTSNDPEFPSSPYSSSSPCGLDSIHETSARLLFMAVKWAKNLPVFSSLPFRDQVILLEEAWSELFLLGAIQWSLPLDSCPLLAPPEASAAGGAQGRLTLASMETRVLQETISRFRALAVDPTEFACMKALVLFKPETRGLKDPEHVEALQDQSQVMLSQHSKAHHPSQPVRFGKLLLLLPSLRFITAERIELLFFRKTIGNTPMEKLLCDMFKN

Cytochrome P450 2C19 = Cytochrome P450 2C19 (Homo sapiens, UniProt P33261); assay: qHTS Assay for Inhibitors and Substrates of Cytochrome P450 2C19. [Related pubchem assays: 410 ]; assay type: ADME; details: read-out: Potency
Sequence of Cytochrome P450 2C19 (P33261 whole entry): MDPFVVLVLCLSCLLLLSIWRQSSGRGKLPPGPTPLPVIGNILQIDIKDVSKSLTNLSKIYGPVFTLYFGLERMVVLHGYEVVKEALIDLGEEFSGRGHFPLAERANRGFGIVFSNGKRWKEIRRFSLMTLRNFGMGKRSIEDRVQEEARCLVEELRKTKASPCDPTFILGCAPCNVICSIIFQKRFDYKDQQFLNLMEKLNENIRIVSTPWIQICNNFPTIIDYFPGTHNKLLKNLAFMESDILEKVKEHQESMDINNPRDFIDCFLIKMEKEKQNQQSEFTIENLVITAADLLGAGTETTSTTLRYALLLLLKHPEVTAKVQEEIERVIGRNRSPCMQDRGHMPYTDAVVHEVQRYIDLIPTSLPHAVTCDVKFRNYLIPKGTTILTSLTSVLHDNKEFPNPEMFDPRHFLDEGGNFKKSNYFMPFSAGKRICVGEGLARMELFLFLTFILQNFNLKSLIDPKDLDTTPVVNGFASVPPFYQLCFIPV

Vero = assay: West Nile virus antiviral activity, cell-based, CPE readout (AID 1621); assay type: functional; details: Chlorocebus sabaeus
[3] = P. falciparum late gametocyte killing, dose response, luminescence (AID 1117278); assay type: functional, cell-based;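 also: gametocytes exposed to compound for 24 hours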
[4] = Jurkat T cell cytotoxicity, dose response, cytotoxicity control for P. falciparum gametocyte viability project, luminescence (AID 1117277); assay type: functional, cell-based;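 also: potency reflects loss of cellular ATP meaning fewer viable cells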
[5] = molecular target: 26S proteasome non-ATPase regulatory subunit 14 (Homo sapiens, UniProt O00487); assay: inhibition of proteasome subunit RPN11 – biochemical, fluorescence polarization, uHTS hits, confirmation (AID 602368); assay type: functional
[6] = molecular target: 72 kDa type IV collagenase (Homo sapiens, UniProt P08253); assay: Dose Response validation of uHTS RPN11 inhibitor hits using a MMP-2 Fluorescence assay.; assay type: functional
Prothrombin = Prothrombin (Bos taurus, UniProt P00735); assay: thrombin inhibition, dose response, biochemical, fluorescence polarization, uHTS hits (AID 602369); assay type: functional
[7] = molecular target: T1, Mannose-6-phosphate isomerase (Homo sapiens, UniProt P34949); assay: human PMI inhibitors, high substrate, primary screen, biochemical, fluorescence intensity, high mannose 6-phosphate (AID 1220)
T1 sequence (P34949 whole entry): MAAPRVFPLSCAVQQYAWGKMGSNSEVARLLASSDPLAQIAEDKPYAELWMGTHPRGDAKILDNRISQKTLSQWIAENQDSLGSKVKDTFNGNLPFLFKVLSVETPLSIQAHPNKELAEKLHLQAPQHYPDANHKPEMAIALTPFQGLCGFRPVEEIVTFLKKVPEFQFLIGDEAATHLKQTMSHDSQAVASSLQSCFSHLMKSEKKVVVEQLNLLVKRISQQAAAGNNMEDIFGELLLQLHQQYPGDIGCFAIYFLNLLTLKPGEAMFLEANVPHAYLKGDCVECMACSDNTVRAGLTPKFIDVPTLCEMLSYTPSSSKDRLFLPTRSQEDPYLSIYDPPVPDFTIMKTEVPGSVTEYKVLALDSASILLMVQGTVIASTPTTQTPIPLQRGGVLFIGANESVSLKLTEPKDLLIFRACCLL

[8] = NIH-3T3 fibroblast cytotoxicity, dose response, cytotoxicity control, cell-based, fluorescence, Alamar Blue, secondary assay (AID 2327); assay type: functional;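 also: NIH-3T3 mouse fibroblasts cultured with fluconazole at 8 µg/mL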
[9] = C. albicans growth with fluconazole, confirmation, fluorescence, retest (AID 2467); assay type: functional, cell-based
[10] = molecular target: Serine/threonine-protein phosphatase PP1-alpha catalytic subunit (Homo sapiens, UniProt P62136); assay: PP1 phosphatase inhibitors, dose response, biochemical, fluorescence (AID 2394)
[11] = Luminescence Cell-Based Dose Confirmation HTS to Identify Activators of 5'UTR Stem-Loop Driven Alpha-Synuclein mRNA Translation in H4 Neuroglioblastoma Cells. [Related pubchem assays: 1829 (Project Summary), 1814 (Primary HTS)]; assay type: functional
[12] = Luminescence Cell-Based Dose Response HTS to Identify Activators of Luciferase Translation or Activity in H4 […] Cells. [Related pubchem assays: 1829 (Project Summary), 1814 (Primary HTS)]; assay type: functional
SUMO-activating enzyme [13] = molecular target: T2, SUMO-activating enzyme (Homo sapiens, UniProt Q9UBT2); assay: SUMOylation inhibitor hit validation, confirmation, SUMOylation inhibitor project, biochemical, AlphaScreen (AID 2018); assay type: functional
T2 sequence (Q9UBE0 whole entry): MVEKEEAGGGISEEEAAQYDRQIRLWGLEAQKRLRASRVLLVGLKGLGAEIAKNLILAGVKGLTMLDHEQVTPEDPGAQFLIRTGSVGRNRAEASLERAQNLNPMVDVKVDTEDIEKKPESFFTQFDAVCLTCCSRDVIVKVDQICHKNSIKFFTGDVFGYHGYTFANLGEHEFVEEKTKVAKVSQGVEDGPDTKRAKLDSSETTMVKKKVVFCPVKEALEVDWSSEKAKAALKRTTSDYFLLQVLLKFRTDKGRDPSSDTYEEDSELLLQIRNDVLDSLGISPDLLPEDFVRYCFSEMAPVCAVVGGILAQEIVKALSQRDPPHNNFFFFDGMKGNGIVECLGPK
T2 sequence (Q9UBT2 whole entry): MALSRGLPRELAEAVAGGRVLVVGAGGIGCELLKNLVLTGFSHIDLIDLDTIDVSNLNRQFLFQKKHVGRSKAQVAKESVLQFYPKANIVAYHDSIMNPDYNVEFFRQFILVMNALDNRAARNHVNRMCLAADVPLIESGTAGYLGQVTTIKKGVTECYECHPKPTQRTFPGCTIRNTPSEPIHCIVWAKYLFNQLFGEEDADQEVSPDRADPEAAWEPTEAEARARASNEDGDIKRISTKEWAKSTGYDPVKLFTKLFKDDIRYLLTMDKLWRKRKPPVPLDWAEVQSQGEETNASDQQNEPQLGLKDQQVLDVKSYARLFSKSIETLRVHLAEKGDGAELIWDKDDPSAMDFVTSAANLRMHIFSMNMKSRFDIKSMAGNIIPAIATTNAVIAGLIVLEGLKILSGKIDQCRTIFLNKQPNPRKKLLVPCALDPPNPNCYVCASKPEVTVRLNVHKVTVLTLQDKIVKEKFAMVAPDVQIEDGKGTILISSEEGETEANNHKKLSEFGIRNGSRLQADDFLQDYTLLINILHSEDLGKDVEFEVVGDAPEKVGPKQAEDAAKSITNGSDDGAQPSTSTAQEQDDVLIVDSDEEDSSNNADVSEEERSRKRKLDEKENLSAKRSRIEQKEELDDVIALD

H4 = assay: Luminescence Cell-Based Dose Response HTS to Identify Activators of 5'UTR Stem-Loop Driven Prion Protein mRNA Translation in H4 Neuroglioblastoma Cells. [Related pubchem assays: 1829 (Project Summary), 1814 (Primary HTS)]; assay type: functional; details: Homo sapiens
SUMO-activating enzyme [14] = molecular target: T2, SUMO-activating enzyme; assay: inhibitors of in vitro SUMOylation cascade, primary screen, biochemical, HTRF, uHTS (AID 2006); assay type: protein-complex assay
[15] = molecular target: T3, Serine/threonine-protein phosphatase (Homo sapiens, UniProt Q9BPW0); assay: PP5 phosphatase inhibitors, dose response, biochemical, fluorescence (AID 2395)
T3 sequence (Q9BPW0 whole entry): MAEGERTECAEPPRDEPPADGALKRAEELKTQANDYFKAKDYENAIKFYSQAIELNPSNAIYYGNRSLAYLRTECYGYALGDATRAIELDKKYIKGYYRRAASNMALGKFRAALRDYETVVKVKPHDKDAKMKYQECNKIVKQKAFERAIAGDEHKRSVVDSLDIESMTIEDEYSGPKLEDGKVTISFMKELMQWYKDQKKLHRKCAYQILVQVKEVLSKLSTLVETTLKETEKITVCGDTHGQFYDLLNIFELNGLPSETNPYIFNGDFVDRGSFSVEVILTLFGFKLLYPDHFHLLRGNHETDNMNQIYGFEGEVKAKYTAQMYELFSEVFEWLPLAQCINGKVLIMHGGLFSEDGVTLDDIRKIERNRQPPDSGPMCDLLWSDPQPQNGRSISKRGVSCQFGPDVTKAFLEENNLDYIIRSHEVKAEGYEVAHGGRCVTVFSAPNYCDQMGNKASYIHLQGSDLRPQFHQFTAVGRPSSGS

[16] = molecular target: T4, Replicative DNA helicase DnaB (Mycobacterium tuberculosis, UniProt P9WMR3); assay: DnaB intein splicing inhibitors, dose response, biochemical, cell-free fluorescence (AID 449749); assay type: functional
T4 sequence (P9WMR3 whole entry): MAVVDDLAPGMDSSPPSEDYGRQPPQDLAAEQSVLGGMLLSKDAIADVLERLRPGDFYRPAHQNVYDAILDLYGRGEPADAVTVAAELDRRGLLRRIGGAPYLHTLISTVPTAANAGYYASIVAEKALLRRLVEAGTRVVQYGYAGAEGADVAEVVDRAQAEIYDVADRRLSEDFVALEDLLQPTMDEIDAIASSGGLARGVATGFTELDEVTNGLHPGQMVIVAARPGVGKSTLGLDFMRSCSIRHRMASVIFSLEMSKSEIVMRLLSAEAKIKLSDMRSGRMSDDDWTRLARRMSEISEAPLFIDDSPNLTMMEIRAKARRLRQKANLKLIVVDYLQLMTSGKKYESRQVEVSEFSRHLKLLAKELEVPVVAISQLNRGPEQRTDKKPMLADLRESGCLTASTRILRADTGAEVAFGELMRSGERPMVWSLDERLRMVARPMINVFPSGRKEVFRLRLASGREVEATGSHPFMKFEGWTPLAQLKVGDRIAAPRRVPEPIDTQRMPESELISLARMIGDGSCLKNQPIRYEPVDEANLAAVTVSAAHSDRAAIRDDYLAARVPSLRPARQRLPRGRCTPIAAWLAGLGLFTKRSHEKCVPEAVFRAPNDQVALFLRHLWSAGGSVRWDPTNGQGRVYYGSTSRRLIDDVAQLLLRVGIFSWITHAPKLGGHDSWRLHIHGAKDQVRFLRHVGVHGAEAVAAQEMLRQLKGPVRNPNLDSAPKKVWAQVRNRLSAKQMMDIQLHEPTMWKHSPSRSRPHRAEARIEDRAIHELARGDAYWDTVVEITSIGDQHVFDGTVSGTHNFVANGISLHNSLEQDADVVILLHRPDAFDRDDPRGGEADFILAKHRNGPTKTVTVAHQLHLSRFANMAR

Protein RecA = molecular target: T5, Protein RecA (Mycobacterium tuberculosis, UniProt P9WHJ3); assay: Fluorescence Cell-Free Homogeneous Dose Retest to Identify Inhibitors of RecA-Intein Splicing Activity. [Related pubchem assays (depositor defined):AID2097, AID2223, AID489010, AID492950]; assay type: functional
T5 sequence (P9WHJ3 whole entry): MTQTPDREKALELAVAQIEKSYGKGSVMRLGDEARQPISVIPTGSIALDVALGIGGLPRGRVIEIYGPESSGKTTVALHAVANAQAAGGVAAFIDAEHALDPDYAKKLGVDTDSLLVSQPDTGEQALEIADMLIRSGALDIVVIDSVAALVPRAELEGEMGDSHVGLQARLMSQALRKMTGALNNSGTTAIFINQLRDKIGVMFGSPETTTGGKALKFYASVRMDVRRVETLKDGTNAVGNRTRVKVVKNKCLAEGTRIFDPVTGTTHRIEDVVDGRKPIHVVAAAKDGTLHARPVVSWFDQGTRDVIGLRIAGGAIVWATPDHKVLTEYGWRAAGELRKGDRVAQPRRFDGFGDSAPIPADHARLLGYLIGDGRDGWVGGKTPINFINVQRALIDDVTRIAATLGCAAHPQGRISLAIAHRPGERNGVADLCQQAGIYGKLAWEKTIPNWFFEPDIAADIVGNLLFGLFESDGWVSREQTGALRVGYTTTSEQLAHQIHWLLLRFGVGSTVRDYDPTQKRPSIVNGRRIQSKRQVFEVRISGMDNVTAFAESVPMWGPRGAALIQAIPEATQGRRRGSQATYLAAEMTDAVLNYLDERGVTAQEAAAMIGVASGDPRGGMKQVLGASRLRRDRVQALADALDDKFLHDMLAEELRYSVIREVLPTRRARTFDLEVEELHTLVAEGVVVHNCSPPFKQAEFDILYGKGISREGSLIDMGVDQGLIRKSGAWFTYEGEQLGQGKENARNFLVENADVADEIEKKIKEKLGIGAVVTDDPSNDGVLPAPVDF

O=C(Cc1ccc(Cl)cc1)Nc1ccc2oc(-c3ccncc3)nc2c1
IC50 [1]: 5.54 µM (active)
IC50 [2]: 4.29 µM (active)

CC(=O)c1ccc(C2C=CC(Oc3ccc(F)cc3C)C(CO)O2)cc1 (stereo unspecified)
AC50 (Cytochrome P450 2C19): 6.31 µM (inconclusive)

CCOC(=O)c1[nH]c2ccccc2c1NC(=O)CC(C)(C)C
IC50 (Vero): 22.2 µM (active)

C=C[C@@]1(C)C=C2CC[C@@H]3[C@](C)(CCC[C@@]3(C)C(=O)O)[C@H]2CC1 [PIMARIC ACID]
AC50 (Cytochrome P450 2C19): 7.94 µM (inconclusive)

Cc1ccc(NCC(O)C(O)C(O)CO)cc1C (stereo unspecified)
IC50 [3]: > 109 µM (inactive)
IC50 [4]: > 83.3 µM (inactive)

Cc1c(NC(=O)c2cccc(-c3cc4ccccc4oc3=O)c2)cccc1-c1nc2ncccc2o1
IC50 [1]: 1.72 µM (active)
IC50 [2]: 2.33 µM (active)
IC50 [5]: 24.1 µM (active)
IC50 [6]: > 100 µM (inactive)
IC50 (Prothrombin): 92 µM (active)

Nc1c(N2CCOCC2)cc(Cl)c2nonc12
IC50 [7]: > 50 µM (not active)

CC(=O)c1cnc(Nc2cccc(Cl)c2Cl)s1
EC50 [8]: > 160 µM (inactive)
EC50 [9]: > 38 µM (not active)
IC50 [3]: > 109 µM (inactive)
IC50 [4]: > 83.3 µM (inactive)

O=C1c2ccccc2C(=O)C12OC2c1ccc(Cl)cc1 (stereo unspecified)
IC50 [10]: > 67 µM (not active)
EC50 [11]: > 120 µM (not active)
EC50 [12]: > 120 µM (not active)
IC50 (SUMO-activating enzyme [13]): 7.05 µM (active)
EC50 (H4): > 120 µM (not active)
IC50 (SUMO-activating enzyme [14]): 21.2 µM (active)
IC50 [15]: > 2.48 µM (active)
AC50 [16]: 1.61 µM (active)
EC50 (Protein RecA): 22.2 µM (inconclusive)
